# Test results taken from ChEMBL document CHEMBL3124831, “Simplified 2-aminoquinoline-based scaffold for potent and selective neuronal nitric oxide synthase inhibition” (J Med Chem, 2014).
# Key:
# Nitric oxide synthase 1 = Nitric oxide synthase 1 (Rattus norvegicus, UniProt P29476)
# Description: Inhibition of rat recombinant nNOS expressed in Escherichia coli using L-arginine as substrate assessed as NO production by hemoglobin capture assay
# Caco-2 = settings: human, caco-2, 2 h, 10 µM
# Description: Apparent permeability across basolateral to apical side in human Caco2 cells assessed as compound recovery at 10 uM for 2 hrs by LC-MS/MS analysis
# [1] = Selectivity ratio of Ki for bovine recombinant eNOS to Ki for rat recombinant nNOS
# [2] = Selectivity ratio of Ki for mouse recombinant iNOS to Ki for rat recombinant nNOS
# [3] = biological target: T1, Nitric oxide synthase, inducible (Mus musculus, UniProt P29477)
# T1 sequence (P29477 whole entry): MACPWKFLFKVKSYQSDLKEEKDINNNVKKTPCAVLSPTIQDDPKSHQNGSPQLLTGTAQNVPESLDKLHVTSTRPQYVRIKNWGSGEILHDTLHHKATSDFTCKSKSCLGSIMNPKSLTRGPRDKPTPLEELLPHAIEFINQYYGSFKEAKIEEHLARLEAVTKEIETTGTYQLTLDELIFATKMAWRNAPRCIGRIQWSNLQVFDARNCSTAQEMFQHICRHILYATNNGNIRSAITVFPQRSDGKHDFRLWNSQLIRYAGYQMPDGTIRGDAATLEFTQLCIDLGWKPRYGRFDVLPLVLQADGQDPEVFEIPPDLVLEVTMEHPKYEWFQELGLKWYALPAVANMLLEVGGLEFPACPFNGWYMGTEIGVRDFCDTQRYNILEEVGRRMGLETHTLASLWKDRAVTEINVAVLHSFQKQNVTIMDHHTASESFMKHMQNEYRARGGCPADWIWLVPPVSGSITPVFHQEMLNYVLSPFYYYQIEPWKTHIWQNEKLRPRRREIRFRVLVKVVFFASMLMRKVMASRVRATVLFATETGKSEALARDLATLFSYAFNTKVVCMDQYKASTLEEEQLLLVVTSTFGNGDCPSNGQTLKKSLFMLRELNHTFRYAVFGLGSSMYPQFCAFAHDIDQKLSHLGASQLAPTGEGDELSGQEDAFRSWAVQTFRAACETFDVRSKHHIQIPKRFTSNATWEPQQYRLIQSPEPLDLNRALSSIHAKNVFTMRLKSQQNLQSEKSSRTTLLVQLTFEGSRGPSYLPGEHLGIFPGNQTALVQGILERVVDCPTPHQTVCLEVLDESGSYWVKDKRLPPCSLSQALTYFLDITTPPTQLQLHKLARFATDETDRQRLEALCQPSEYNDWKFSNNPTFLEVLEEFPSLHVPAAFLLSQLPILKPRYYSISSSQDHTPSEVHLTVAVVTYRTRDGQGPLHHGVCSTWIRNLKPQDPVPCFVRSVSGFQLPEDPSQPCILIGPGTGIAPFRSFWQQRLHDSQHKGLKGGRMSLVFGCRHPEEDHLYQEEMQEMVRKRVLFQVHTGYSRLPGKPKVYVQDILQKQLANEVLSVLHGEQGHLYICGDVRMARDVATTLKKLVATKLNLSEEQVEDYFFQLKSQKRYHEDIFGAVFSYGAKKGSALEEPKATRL
# Description: Inhibition of mouse recombinant iNOS expressed in Escherichia coli using L-arginine as substrate assessed as NO production by hemoglobin capture assay
# Nitric oxide synthase 3 = biological target: T2, Nitric oxide synthase 3 (Bos taurus, UniProt P29473)
# T2 sequence (P29473 whole entry): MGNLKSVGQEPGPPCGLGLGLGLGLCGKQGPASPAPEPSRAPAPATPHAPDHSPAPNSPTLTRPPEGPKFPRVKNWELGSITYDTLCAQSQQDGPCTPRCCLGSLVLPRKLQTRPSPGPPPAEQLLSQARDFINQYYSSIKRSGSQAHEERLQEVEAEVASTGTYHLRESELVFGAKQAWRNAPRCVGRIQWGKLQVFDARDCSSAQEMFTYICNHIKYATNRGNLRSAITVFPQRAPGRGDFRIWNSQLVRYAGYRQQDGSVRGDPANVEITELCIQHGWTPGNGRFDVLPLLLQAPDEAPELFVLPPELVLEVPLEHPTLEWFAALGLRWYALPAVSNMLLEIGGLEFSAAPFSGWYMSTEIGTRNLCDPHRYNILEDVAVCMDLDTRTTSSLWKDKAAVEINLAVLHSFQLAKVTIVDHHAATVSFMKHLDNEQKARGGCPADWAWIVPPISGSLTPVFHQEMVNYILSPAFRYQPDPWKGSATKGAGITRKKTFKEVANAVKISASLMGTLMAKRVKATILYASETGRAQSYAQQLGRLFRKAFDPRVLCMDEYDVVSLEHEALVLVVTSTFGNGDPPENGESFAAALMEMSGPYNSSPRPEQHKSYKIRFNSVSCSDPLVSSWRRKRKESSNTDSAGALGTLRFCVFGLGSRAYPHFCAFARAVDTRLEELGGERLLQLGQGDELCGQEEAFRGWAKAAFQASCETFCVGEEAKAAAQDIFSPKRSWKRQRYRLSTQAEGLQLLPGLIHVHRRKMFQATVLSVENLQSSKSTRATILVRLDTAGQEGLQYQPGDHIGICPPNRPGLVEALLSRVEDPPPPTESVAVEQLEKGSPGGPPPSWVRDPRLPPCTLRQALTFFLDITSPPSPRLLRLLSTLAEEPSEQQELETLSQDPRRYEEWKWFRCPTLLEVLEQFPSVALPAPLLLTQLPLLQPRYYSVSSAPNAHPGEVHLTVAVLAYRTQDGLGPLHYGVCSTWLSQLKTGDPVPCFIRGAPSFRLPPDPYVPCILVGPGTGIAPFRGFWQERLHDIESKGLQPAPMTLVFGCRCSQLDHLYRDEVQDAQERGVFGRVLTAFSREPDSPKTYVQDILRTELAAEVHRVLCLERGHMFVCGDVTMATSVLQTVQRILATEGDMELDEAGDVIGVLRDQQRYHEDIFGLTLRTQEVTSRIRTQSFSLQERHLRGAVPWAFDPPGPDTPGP
# Description: Inhibition of bovine recombinant eNOS expressed in Escherichia coli using L-arginine as substrate assessed as NO production by hemoglobin capture assay
# Chain of Nitric oxide synthase 1 (P29476 whole entry): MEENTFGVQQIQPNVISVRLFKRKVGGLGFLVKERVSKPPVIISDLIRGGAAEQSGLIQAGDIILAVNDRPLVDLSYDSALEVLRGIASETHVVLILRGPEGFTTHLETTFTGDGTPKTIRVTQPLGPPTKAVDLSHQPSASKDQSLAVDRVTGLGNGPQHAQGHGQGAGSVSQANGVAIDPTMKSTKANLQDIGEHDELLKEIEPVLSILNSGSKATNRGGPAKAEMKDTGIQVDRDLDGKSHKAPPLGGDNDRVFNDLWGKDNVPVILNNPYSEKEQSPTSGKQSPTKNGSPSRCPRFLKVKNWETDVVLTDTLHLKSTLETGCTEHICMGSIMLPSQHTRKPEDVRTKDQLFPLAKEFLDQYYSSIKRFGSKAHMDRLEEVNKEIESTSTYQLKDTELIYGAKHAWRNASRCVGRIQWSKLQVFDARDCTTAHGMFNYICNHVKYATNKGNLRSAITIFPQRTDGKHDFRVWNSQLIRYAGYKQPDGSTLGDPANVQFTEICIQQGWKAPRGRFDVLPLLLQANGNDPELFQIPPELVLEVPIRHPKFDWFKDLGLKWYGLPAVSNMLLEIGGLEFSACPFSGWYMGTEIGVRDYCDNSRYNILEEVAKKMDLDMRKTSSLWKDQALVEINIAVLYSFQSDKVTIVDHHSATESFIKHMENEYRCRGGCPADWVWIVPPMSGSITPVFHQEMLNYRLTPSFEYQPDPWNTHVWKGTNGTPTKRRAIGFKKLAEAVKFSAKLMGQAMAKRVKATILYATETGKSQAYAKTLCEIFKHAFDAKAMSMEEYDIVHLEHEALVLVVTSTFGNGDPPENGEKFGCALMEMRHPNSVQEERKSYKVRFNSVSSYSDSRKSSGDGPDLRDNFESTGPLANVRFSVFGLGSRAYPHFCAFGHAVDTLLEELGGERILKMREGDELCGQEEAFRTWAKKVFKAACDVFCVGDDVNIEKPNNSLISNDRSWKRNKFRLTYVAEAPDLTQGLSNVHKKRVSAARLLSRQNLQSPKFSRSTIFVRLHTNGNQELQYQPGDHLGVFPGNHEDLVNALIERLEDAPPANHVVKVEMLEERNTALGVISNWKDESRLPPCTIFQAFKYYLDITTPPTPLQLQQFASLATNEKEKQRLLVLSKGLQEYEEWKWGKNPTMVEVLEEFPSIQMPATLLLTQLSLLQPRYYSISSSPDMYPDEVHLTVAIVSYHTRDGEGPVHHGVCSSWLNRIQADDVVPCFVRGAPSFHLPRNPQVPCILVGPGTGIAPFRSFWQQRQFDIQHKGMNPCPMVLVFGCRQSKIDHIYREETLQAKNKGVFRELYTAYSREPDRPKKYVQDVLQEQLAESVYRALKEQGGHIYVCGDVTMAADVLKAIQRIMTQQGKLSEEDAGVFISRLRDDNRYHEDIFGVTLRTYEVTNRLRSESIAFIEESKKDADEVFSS
Structure (SMILES),Ki (Nitric oxide synthase 1) [µM],Ratio Ki [1],Ratio Ki [2],further results
Cl.Cl.Cl.N=C(Nc1ccc(CCNCc2cccc(Cl)c2)cc1)c1cccs1,,,,IC50 (Nitric oxide synthase 1): 0.035 µM; Drug recovery (Caco-2): 78%
Nc1ccc2cc(CCNCCc3cccc(F)c3)ccc2n1,> 5.7,,,
Nc1ccc2ccc(CCNCc3cccc(F)c3)cc2n1,,30,97,
Nc1ccc2cc(CCNCCCc3cccc(F)c3)ccc2n1,4.37,,,
Nc1ccc2cc(CNCCc3cccc(F)c3)ccc2n1,> 5.7,,,
Nc1ccc2ccc(CNCCCc3cccc(F)c3)cc2n1,0.06,62,538,Ki [3]: 32.3 µM; Ki (Nitric oxide synthase 3): 3.69 µM
Nc1ccc2cc(CCNCc3cccc(F)c3)ccc2n1,> 5.7,,,
Nc1ccc2ccc(CCNCCc3ccc(Cl)cc3)cc2n1,,47,91,
Nc1ccc2ccc(CCNCCc3ccc(F)cc3)cc2n1,,37,280,
Nc1ccc2ccc(CNCCc3cccc(F)c3)cc2n1,,6.2,124,
